Assay results published in patent US9550742B2, “11-OXO-10,11-dihydrodibenzo[B,F][1,4]thiazepine S-oxide derivatives and their use as dopamine D2 receptor antagonists” (The United States of America, as Represented by the …, priority 2013, dated 2017).
Where two headings read alike, the source gives them in different places.

Columns and labels:
[1] = target: M2 (Homo sapiens, UniProt P08172); assay: Affinity profile panel: M2; details: inhibition of binding
[2] = target: T1, D2 DAR (Homo sapiens, UniProt P14416); assay: D2 Ca^2+ screen assay (calcium accumulation, HEK293 T-REx with Gqi5); type: cell-based
T1 construct: expressed in transfected cells; host or cells: HEK293 T-REx, Tet-inducible, with chimeric G-protein Gqi5
Procedure: The resting concentration of calcium ions (Ca^2+) in the cells' cytoplasm is normally maintained in the range of 10-100 nM. To maintain this low concentration, Ca^2+ is actively pumped from the cytosol to the extracellular space and into the endoplasmic reticulum (ER), and sometimes into the mitochondria. Signaling occurs when the cell is stimulated to release Ca^2+ from intracellular stores. The most common signaling pathway that increases cytoplasmic calcium concentration is the phospholipase C (PLC) pathway. […] IP3 diffuses to the ER, binds to its receptor (IP3 receptor), which is a Ca^2+ channel and, thus, releases Ca^2+ from the ER to the cytosol. To measure this cytosolic Ca^2+ accumulation, we used the Screen Quest™ Fluo-8 Calcium Assay Kit (AAT Bioquest, Sunnyvale, Calif.). Acetoxymethyl (AM) esters bound to Fluo-8™ dye are non-polar molecules that easily cross live cell membranes transporting the dye inside the cell, and are then rapidly hydrolyzed by cellular esterases inside live cells. As Fluo-8™ is freed from AM esters, it binds to Ca^2+ and emits a fluorescent signal at 514 nm that escalates with increasing cytosolic Ca^2±. To measure this calcium flux signal, we used the Functional Drug Screening System (FDSS) (Hamamatsu, Japan), a high throughput screening device that allows optical detection of signal transmissions within living cells in a time-resolving fashion. […] Quest Fluo-8™ calcium reagent was freshly prepared prior to adding to the cells (lyophilized Fluo-8™ dye provided with the kit was re-suspended in 200 μL DMSO as a 500× stock and stored at −20° C.). 2 μL/well of Quest Fluo-8™ calcium dye diluted in HBSS +10 mM HEPES buffer (for every 10 mL buffer, 1 mL of 10× quencher provided in the kit and 20 μL of 500×DMSO stock dye were added) was added to cells with a Multi-Drop Combi (ThermoScientific) and incubated for 45-90 min in the dark at ambient temperature. Then, the plates were introduced into the FDSS where they were pinned with 23 nL of test compound or dopamine controls and were read by FDSS in non-stimulated mode for 180 sec for detection of agonists. […]

[3] = target: MOR (Homo sapiens, UniProt P35372); assay: Affinity profile panel: MOR; details: inhibition of binding
[4] = target: T2, D2 GPCR receptor (DAR) (Homo sapiens, UniProt P14416); assay: D2 beta-arrestin functional assay (PathHunter, CHO); type: cell-based
T2 construct: host or cells: CHO PathHunter β-arrestin cells
Text: For a secondary-screen and selectivity assays, DAR PathHunter® β-arrestin GPCR cell lines from DiscoveRx (Fremont, Calif.). In this) were used. In the D2 Receptor PathHunter® β-arrestin GPCR cell line, the D2 GPCR receptor (DAR) is overexpressed and fused with a small 42-amino acid fragment of β-galactosidase called ProLink™ on a CHO cellular background expressing a fusion protein of β-arrestin and a larger N-terminal deletion mutant of β-galactosidase (“enzyme acceptor”). When DAR is activated by dopamine, it stimulates binding of β-arrestin to the ProLink-tagged DAR and the two complementary parts of β-galactosidase form a functional enzyme. When substrate (PathHunter® Detection reagent) is added, β-galactosidase hydrolyzes it and generates a chemiluminescent signal.
D2 Receptor PathHunter® β-arrestin cells were seeded at 2,100 cells/well in 3 μL/well media (DiscoveRx Plating Reagent 2) with MultiDrop Combi dispenser (Thermo Scientific, Logan, Utah) onto white tissue culture treated 1,536-well Aurora plates (Brooks Automation, Chelmsford, Mass.) and allowed to attach overnight at 37° C., 5% CO2. Next, 23 nL/well of compound solutions in DMSO were added with a pintool transfer (Kalypsis, San Diego, Calif.). The cells were stimulated by compounds for 90 min at 37° C., 5% CO2, after which 1.5 μL/well of DiscoveRx detection reagent was added with BioRAPTR FRD dispenser. The detection reagent was prepared by mixing of Galacton Star Substrate, Emerald II solution and PathHunter buffer (supplied by the assay kit) together at a 1:5:19 proportion just prior to dispensing. The plates were incubated at ambient temperature for 1 hr, and the luminescent signal was read on a ViewLux plate reader (PerkinElmer, Waltham, Mass.).

[5] = target: Sigma 2 (Homo sapiens, UniProt Q5BJF2); assay: Affinity profile panel: Sigma 2; details: inhibition of binding
[6] = target: D2L human dopamine receptors (Homo sapiens, UniProt P14416); assay: D2 binding assay ([^3H]methylspiperone, HEK membranes)
Procedure: Compounds were tested for differences in affinity between three dopamine receptor subtypes using radio-labeled ligand binding assays. The first assay determined the Ki value of the compounds for the D2 DAR subtype using stable HEK cell lines expressing the D2L human dopamine receptors (Codex Biosciences, Gaithersburg, Md.). Cells were cultured in Dulbecco's modified Eagle's Medium containing 10% FBS, 1,000 units/mL Penicillin, 1,000 mg/mL Streptomycin, 100 mM Sodium Pyruvate, 1 μg/mL Gentamicin, and […] G418. All cells were maintained at 37° C. in 5% CO2 and 90% humidity. For radioligand binding assays, cells were removed mechanically using calcium and magnesium-free Earle's Balanced Salt Solution (EBSS(−)). Intact cells were collected by centrifugation and then lysed with 5 mM Tris-HCl and 5 mM MgCl2 at pH 7.4 in a glass homogenizer. Homogenates were centrifuged at 20,000×g for 30 minutes. The membranes were re-suspended in EBSS (pH 7.4) and protein concentration was determined using a Bradford assay according to the manufacturer's recommendations (Bio-Rad). Membranes were diluted to 24 mg/mL. […] Membrane preparations were incubated for 90 min at room temperature with various concentrations of radioligand in a reaction volume of 250 μL EBSS containing 200 mM sodium metabisulfite. Non-specific binding was determined in the presence of 4 μM (+)-butaclamol. Bound ligand was separated from unbound by filtration through GF/C filters using a PerkinElmer cell harvester with ice cold EBSS (4 washes) and quantified on a Top-count (PerkinElmer) after addition of scintillation solution. […] In order to determine the affinity of a given compound for a receptor type, competition-binding assays were performed. […] Reactions were incubated, terminated, and quantified as indicated above.

D2L human dopamine receptors, sequence (P14416 whole entry): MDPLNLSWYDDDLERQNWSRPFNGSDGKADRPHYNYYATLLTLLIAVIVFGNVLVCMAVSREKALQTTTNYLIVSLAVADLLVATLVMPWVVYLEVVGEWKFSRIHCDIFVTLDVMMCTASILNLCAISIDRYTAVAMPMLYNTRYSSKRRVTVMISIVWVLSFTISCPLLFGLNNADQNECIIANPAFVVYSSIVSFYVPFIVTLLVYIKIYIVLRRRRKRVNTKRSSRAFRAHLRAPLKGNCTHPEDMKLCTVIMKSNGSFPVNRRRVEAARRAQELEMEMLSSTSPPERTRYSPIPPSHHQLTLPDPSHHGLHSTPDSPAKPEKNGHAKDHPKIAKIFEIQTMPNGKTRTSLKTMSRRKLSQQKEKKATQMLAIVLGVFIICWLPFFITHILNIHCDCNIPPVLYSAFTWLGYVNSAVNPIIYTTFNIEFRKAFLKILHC
T2 sequence (P14416 whole entry): as above
T1 sequence (P14416 whole entry): as above
M2, sequence (P08172 whole entry): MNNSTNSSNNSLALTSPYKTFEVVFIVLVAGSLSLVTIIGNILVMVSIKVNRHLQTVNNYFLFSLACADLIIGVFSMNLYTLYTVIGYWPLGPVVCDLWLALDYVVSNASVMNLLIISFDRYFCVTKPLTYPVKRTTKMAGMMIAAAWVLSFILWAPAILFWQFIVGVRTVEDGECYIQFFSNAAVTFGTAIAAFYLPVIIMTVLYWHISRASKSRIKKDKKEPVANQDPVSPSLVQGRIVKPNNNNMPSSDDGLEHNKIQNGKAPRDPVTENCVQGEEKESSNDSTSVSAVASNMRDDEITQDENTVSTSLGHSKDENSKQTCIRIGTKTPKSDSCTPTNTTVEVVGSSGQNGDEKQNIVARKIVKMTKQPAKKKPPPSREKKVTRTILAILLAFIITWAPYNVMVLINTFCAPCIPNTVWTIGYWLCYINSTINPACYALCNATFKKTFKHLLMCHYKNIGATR
Sigma 2, sequence (Q5BJF2 whole entry): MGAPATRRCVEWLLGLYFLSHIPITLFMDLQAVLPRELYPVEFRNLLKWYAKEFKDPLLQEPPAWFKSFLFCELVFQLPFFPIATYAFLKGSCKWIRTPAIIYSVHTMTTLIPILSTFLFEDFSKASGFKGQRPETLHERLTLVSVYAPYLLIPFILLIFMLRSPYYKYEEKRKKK
MOR, sequence (P35372 whole entry): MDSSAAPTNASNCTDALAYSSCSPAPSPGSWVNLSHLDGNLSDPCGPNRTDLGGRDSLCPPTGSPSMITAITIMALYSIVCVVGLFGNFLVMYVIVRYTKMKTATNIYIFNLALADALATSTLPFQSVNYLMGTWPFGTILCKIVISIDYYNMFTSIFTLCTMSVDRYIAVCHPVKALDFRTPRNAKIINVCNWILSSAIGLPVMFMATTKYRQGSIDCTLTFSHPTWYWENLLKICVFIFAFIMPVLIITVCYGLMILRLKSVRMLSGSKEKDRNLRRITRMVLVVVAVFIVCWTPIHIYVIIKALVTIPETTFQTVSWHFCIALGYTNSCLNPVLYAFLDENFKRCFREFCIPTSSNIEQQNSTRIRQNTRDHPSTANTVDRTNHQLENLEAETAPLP

CN1C(=O)c2ccccc2[S@+]([O-])c2ccc(C(=O)NCCc3cccs3)cc21 [Compound 55, 10-Methyl-11-oxo-N-(2-(thiophen-2-yl)ethyl)-10,11-dihydrodibenzo[b,f][1,4]thiazepine-8-carboxamide 5-(S)-oxide]
Inhibition (%) M2 [1]: −1.7%
AC50 ([2]; dopamine D2 calcium release assay of Example 1, read-out: Ca^2+ AC50): < 1000 nM
AC50 ([2]; dose response curve, read-out: D2 Ca^2+ assay AC50): 70 nM
Inhibition (%) MOR [3]: 5.7%
AC50 ([4]; dose response curve, read-out: D2 β-arrestin assay AC50): 725 nM
D3/D2 beta-arrestin IC50ratio ([4]; ratio of D3 (Example 4) to D2 (Example 2) beta arrestin assay): 17.8
Inhibition (%) Sigma 2 [5]: −16.5%
Ki [6]: 100 nM
D3/D2 binding Ki ratio ([6]; ratio of D3 (Example 5) to D2 (Example 3) binding assay): 29.0
